A word on the chromatographic logP: it is lipophilicity estimated from chromatographic retention. A higher chromatographic logP goes with a more lipophilic compound.

These results are taken from patent US20110245284A1, “Alkoxy- and Alkylthio-Substituted Anilinopyrimidines” (Bayer CropScience AG, priority 2008, published 2011).

One data set relates to Rhizoctonia solani. Description: Rhizoctonia test (rice) / protective. Format: in vivo. Particulars: 96 h, active compound concentration 250 ppm, evaluation 4 days after inoculation, read-out: efficacy.
A short description of data set [1]: logP by LC-MS on reversed-phase columns (C 18), method [b], acidic range pH 2.7. The data set is classed as physicochemical. Particulars: pH 2.7, log p. The method, then: (§1) The logP values were determined in accordance with EEC Directive 79/831 Annex V.A8 by HPLC (High Performance Liquid Chromatography) on reversed-phase columns (C 18), using the methods below:
[b] The LC-MS determination in the acidic range is carried out at pH 2.7 using the mobile phases 0.1% aqueous formic acid and acetonitrile (contains 0.1% formic acid), linear gradient from 10% acetonitrile to 95% acetonitrile.

For another data set, the system named is Cochliobolus miyabeanus. Description: Cochliobolus test (rice) / protective. Conditions: Bipolaris oryzae, in Oryza sativa, 96 h, read-out: efficacy.
The subject of a further data set is Leptosphaeria nodorum. Nature of the data set: Leptosphaeria nodorum test (wheat) / protective. Format: in vivo. Conditions: Parastagonospora nodorum, active compound concentration 500 ppm, evaluation 7-9 days after inoculation, read-out: efficacy. How it is done:
Thereafter, the plants are placed in a greenhouse at 90% relative atmospheric humidity and a temperature of 22° C.

The test system of a further data set is Alternaria solani. Description: Alternaria test (tomato) / protective. The data set is classed as in vivo. Particulars: 72 h, active compound concentration 100 ppm, evaluation 3 days after inoculation, read-out: efficacy. How it is done:
The plants are then placed in an incubation cabinet at about 20° C. and 100% relative atmospheric humidity.

The subject of the next data set is Pyrenophora teres. Description: Pyrenophora teres test (barley) / protective. The data set is classed as in vivo. Conditions: 192 h, active compound concentration 500 ppm, evaluation 8 days after inoculation, read-out: efficacy. The method, then:
After the spray coating has dried on, the plants are sprayed with a spore suspension of Pyrenophora teres. The plants remain in an incubation cabinet for 48 hours at 20° C. and 100% relative atmospheric humidity.

The next data set deals with Pyricularia oryzae. Description: whole plant or invertebrate. Particulars: 120 h, read-out: efficacy. Format: in vivo.
In another data set the test system is Sphaerotheca fuliginea. Nature of the data set: Sphaerotheca test (cucumber) / protective. Format: in vivo. Conditions: Podosphaera fuliginea, 168 h, active compound concentration 500 ppm, evaluation 7 days after inoculation, read-out: efficacy. How it is done: The plants are subsequently placed in a greenhouse at 70% relative atmospheric humidity and a temperature of 23° C.

The next data set relates to Venturia inaequalis. Description: Venturia test (apple) / protective. The data set is classed as in vivo. Particulars: 240 h, active compound concentration 100 ppm, evaluation 10 days after inoculation, read-out: efficacy. The method, then: After the spray coating has dried on, the plants are inoculated with an aqueous conidia suspension of the apple scab pathogen Venturia inaequalis and then remain for 1 day in an incubation cabinet at about 20° C. and 100% relative atmospheric humidity.

Data set [2] can be described thus: logP by LC-MS on reversed-phase columns (C 18), method [c], neutral range pH 7.8. The data set is classed as physicochemical. Conditions: pH 7.8. How it is done:
as §1
[c] The LC-MS determination in the neutral range is carried out at pH 7.8 using the mobile phases 0.001 molar aqueous ammonium bicarbonate solution and acetonitrile, linear gradient from 10% acetonitrile to 95% acetonitrile.

Procedure for Cochliobolus miyabeanus: Cochliobolus Test (Rice)/Protective • Solvent: 28.5 parts by weight of acetone • Emulsifier: 1.5 parts by weight of alkylaryl polyglycol ether
1 day after the treatment, the plants are inoculated with an aqueous spore suspension of Cochliobolus miyabeanus. The plants are then placed in a greenhouse at 100% relative atmospheric humidity and 25° C.
Evaluation is carried out 4 days after the inoculation.

Regarding `COCc1cccc(Nc2ncc(Cl)c(NC3CCCC3)n2)c1` [Example 7], the pest or weed control at 250 ppm in the data set on Rhizoctonia solani and in the data set on Cochliobolus miyabeanus was no less than 80% each time. The chromatographic logP in [1] was 2.23. Further, the pest or weed control at 500 ppm in the data set with Leptosphaeria nodorum was no less than 70%.

`CSC(C)c1cccc(Nc2ncc(Br)c(NC3CCC3)n2)c1` (stereo not drawn) [Example 13]: the pest or weed control at 100 ppm in the data set on Alternaria solani and in the data set on Venturia inaequalis was no less than 70% throughout. The chromatographic logP in data set [1] worked out at 3.07. Also, the pest or weed control at 500 ppm in the data set with Pyrenophora teres, in the data set with Sphaerotheca fuliginea and with Leptosphaeria nodorum was no less than 70% in each case. Moreover, in the data set with Pyricularia oryzae, the pest or weed control at 250 ppm was no less than 80%.

On to `CSC(C)c1cccc(Nc2ncc(Cl)c(NC3CCC3)n2)c1` (stereo not drawn) [Example 14], for which the pest or weed control at 250 ppm in the data set with Rhizoctonia solani and in the data set on Pyricularia oryzae was no less than 80% in each case. For the same compound, the pest or weed control at 100 ppm in the data set on Alternaria solani and with Venturia inaequalis was no less than 70% in each case. Further, in [1], the chromatographic logP turned out to be 2.82. In addition, the pest or weed control at 500 ppm in the data set with Pyrenophora teres and with Leptosphaeria nodorum was no less than 70% each time.

Consider `CCSCc1cccc(Nc2ncc(Cl)c(NC(C)C)n2)c1` [Example 33], for which the pest or weed control at 100 ppm in the data set on Alternaria solani and in the data set with Venturia inaequalis was no less than 70% in each case. The chromatographic logP in [1] amounted to 2.61. Besides, the pest or weed control at 500 ppm with Pyrenophora teres, in the data set with Sphaerotheca fuliginea and with Leptosphaeria nodorum was no less than 70% in each case.

With `COCCOc1cccc(Nc2ncc(Cl)c(NC3CCC3)n2)c1` [Example 66], the pest or weed control at 100 ppm with Alternaria solani and in the data set on Venturia inaequalis was no less than 70% each time. In addition, the chromatographic logP in [1] stood at 2.12. The pest or weed control at 500 ppm in the data set on Pyrenophora teres and in the data set on Leptosphaeria nodorum was no less than 70% throughout. The pest or weed control at 250 ppm in the data set with Pyricularia oryzae was no less than 80%.

Turning to `COCc1cccc(Nc2ncc(Br)c(NC(C)C)n2)c1` [Example 70], the pest or weed control at 250 ppm with Rhizoctonia solani, in the data set on Cochliobolus miyabeanus and in the data set on Pyricularia oryzae was no less than 80% each time. In addition, the chromatographic logP in data set [1] stood at 1.92. Besides, in the data set on Leptosphaeria nodorum, the pest or weed control at 500 ppm is no less than 70%.

In the case of `COCCOc1cccc(Nc2ncc(C(F)(F)F)c(NC3CCC3)n2)c1` [Example 71], the pest or weed control at 250 ppm in the data set on Rhizoctonia solani, in the data set on Cochliobolus miyabeanus and in the data set with Pyricularia oryzae was no less than 80% each time. Besides, the chromatographic logP in data set [1] was 3.33. In addition, in the data set with Leptosphaeria nodorum, the pest or weed control at 500 ppm is no less than 70%.

With `CCS(=O)(=O)C(C)c1cccc(Nc2ncc(Cl)c(NC3CC3)n2)c1` (stereo not drawn) [Example 75], the chromatographic logP in data set [1] was 2.54. In addition, the pest or weed control at 500 ppm in the data set on Pyrenophora teres, in the data set on Sphaerotheca fuliginea and in the data set on Leptosphaeria nodorum was no less than 70% throughout. The pest or weed control at 250 ppm with Cochliobolus miyabeanus and in the data set with Pyricularia oryzae was no less than 80% each time.

Turning to `COCCOc1ccc(Nc2ncc(C(F)(F)F)c(NC3CC3)n2)cc1` [Example 82], the results for the chromatographic logP in data set [1] and in data set [2] were 2.3 and 3.06, respectively. The pest or weed control at 500 ppm in the data set on Pyrenophora teres and with Leptosphaeria nodorum was no less than 70% each time. Also, the pest or weed control at 250 ppm with Cochliobolus miyabeanus and in the data set on Pyricularia oryzae was no less than 80% in each case.

`CCNc1nc(Nc2cccc(COC)c2)ncc1Cl` [Example 95]: the chromatographic logP in data set [1] was determined as 1.47; in data set [2], 2.84. Further, the pest or weed control at 250 ppm in the data set on Cochliobolus miyabeanus and in the data set with Pyricularia oryzae was no less than 80% throughout. Besides, the pest or weed control at 500 ppm in the data set on Leptosphaeria nodorum is no less than 70%.

On to `CCCS(=O)(=O)c1cccc(Nc2ncc(Cl)c(NC3CCC3)n2)c1` [Example 103], for which the pest or weed control at 250 ppm in the data set with Rhizoctonia solani and with Cochliobolus miyabeanus was no less than 80% each time. The results for the chromatographic logP in data set [1] and in [2] were 2.6 and 3.27, respectively. The pest or weed control at 500 ppm in the data set on Leptosphaeria nodorum was no less than 70%.

For the compound `CCCCSc1cccc(Nc2ncc(Br)c(NC3CC3)n2)c1` [Example 105], the pest or weed control at 250 ppm with Rhizoctonia solani, with Cochliobolus miyabeanus and in the data set on Pyricularia oryzae was no less than 80% in each case. Besides, the values for the chromatographic logP in data set [1] and in data set [2] were 4 and 4.99, respectively. Also, in the data set with Leptosphaeria nodorum, the pest or weed control at 500 ppm was no less than 70%.

Consider `CCCCSc1cccc(Nc2ncc(C(F)(F)F)c(NC3CC3)n2)c1` [Example 107], for which the pest or weed control at 250 ppm in the data set with Rhizoctonia solani, in the data set on Cochliobolus miyabeanus and with Pyricularia oryzae was no less than 80% in each case. Besides, in data set [1], the chromatographic logP stood at 4.94. Besides, the pest or weed control at 500 ppm in the data set on Leptosphaeria nodorum is no less than 70%.

In the case of `CCC1CC1Nc1nc(Nc2cccc(COC)c2)ncc1Cl` (stereo not drawn) [Example 108], the chromatographic logP in data set [1] was found to be 2.46. The pest or weed control at 250 ppm in the data set with Cochliobolus miyabeanus and in the data set with Pyricularia oryzae was no less than 80% throughout. The pest or weed control at 500 ppm in the data set with Leptosphaeria nodorum is no less than 70%.

In the case of `CCS(=O)(=O)c1cccc(Nc2ncc(Cl)c(NC3CC3)n2)c1` [Example 113], the pest or weed control at 100 ppm in the data set on Alternaria solani and in the data set with Venturia inaequalis was no less than 70% throughout. For the same compound, the chromatographic logP came out at 1.87 in data set [1] and 2.48 in [2]. Moreover, the pest or weed control at 500 ppm with Pyrenophora teres, in the data set on Sphaerotheca fuliginea and in the data set on Leptosphaeria nodorum was no less than 70% in each case.

In the case of `CCS(=O)(=O)c1cccc(Nc2ncc(C(F)(F)F)c(NC3CCC3)n2)c1` [Example 118], the pest or weed control at 100 ppm with Alternaria solani and in the data set with Venturia inaequalis was no less than 70% each time. The chromatographic logP in data set [1] was found to be 3.07; in [2], 3.23. The pest or weed control at 500 ppm in the data set on Pyrenophora teres, in the data set with Sphaerotheca fuliginea and in the data set with Leptosphaeria nodorum was no less than 70% throughout.

For `CC[S+]([O-])c1cccc(Nc2ncc(C(F)(F)F)c(NC3CCC3)n2)c1` (stereo not drawn) [Example 119], the pest or weed control at 100 ppm with Alternaria solani and in the data set on Venturia inaequalis was no less than 70% in each case. Besides, the chromatographic logP came to 2.61 in [1] and 2.81 in data set [2]. Moreover, the pest or weed control at 500 ppm in the data set on Pyrenophora teres, in the data set on Sphaerotheca fuliginea and in the data set with Leptosphaeria nodorum was no less than 70% in each case.

As to `CCC(c1cccc(Nc2ncc(Cl)c(NC3CC3)n2)c1)S(=O)(=O)CC` (stereo not drawn) [Example 120], the pest or weed control at 100 ppm in the data set with Alternaria solani and with Venturia inaequalis was no less than 70% in each case. In addition, the chromatographic logP in [1] is 1.94; in [2], 2.83. The pest or weed control at 500 ppm in the data set on Sphaerotheca fuliginea and in the data set on Leptosphaeria nodorum was no less than 70% each time.

Take `CCC(C)SC(C)c1cccc(Nc2ncc(Cl)c(NC3CC3)n2)c1` (stereo not drawn) [Example 133]: the pest or weed control at 100 ppm with Alternaria solani and in the data set with Venturia inaequalis was no less than 70% in each case. The chromatographic logP in data set [1] is 3.79; in data set [2], 5.08. Besides, the pest or weed control at 500 ppm in the data set with Pyrenophora teres, in the data set on Sphaerotheca fuliginea and in the data set on Leptosphaeria nodorum was no less than 70% throughout.

With `CCC(C)S(=O)(=O)C(C)c1cccc(Nc2ncc(Cl)c(NC3CC3)n2)c1` (stereo not drawn) [Example 163], the pest or weed control at 100 ppm in the data set on Alternaria solani and in the data set with Venturia inaequalis was no less than 70% throughout. Further, the chromatographic logP in data set [1] is 2.16; in data set [2], 3.16. For the same compound, the pest or weed control at 500 ppm in the data set on Pyrenophora teres, in the data set with Sphaerotheca fuliginea and in the data set with Leptosphaeria nodorum was no less than 70% in each case.

As to `CCC(C)[S+]([O-])C(C)c1cccc(Nc2ncc(Cl)c(NC3CC3)n2)c1` (stereo not drawn) [Example 164], the pest or weed control at 100 ppm in the data set on Alternaria solani and with Venturia inaequalis was no less than 70% in each case. Further, the chromatographic logP turned out to be 2 in data set [1] and 2.79 in [2]. Further, the pest or weed control at 500 ppm in the data set with Pyrenophora teres, in the data set on Sphaerotheca fuliginea and in the data set on Leptosphaeria nodorum was no less than 70% throughout.

For `CCC[S+]([O-])c1cccc(Nc2ncc(Cl)c(NC3CC3)n2)c1` (stereo not drawn) [Example 205], the pest or weed control at 100 ppm with Alternaria solani and in the data set on Venturia inaequalis was no less than 70% throughout. Further, the chromatographic logP came to 1.8 in data set [1] and 2.47 in [2]. Also, the pest or weed control at 500 ppm with Pyrenophora teres, with Sphaerotheca fuliginea and with Leptosphaeria nodorum was no less than 70% in each case.
